Read-outs that look alike come from different tables or passages of the source.
Experiments:
[1] = tested on: mice; experiment: Analgesic activity, intraperitoneal irritation test with 3% acetic acid; assay type: in vivo, female mice; conditions: Mus musculus, read-out: ED50 (analgesic activity)
Procedure: (§1) The 2-phenyl-2-carboxyethyl 1-(p-chlorobenzoyl)-5-methoxy-2-methyl-3-indolylacetate prepared in accordance with the invention was evaluated by comparison with 1-(p-chlorobenzoyl-5-methoxy-2-methyl-3-indolylacetic acid), the widely-used anti-inflammatory substance indomethacin. The two compounds were compared upon oral administration of their aqueous suspensions, with the addition of gum arabic, into the stomachs of test animals using a flexible metallic probe.
Analgesic activity was evaluated by the intraperitoneal irritation test with 3% acetic acid (L. B. Wilkin et al., J. Pharm. 133, 400 (1961)) in female mice weighing 16-20 grams (groups of 12 animals).

[2] = tested on: kaolin oedema; experiment: Kaolin oedema inhibition; assay type: in vivo; conditions: 1 mg/kg p.o., one hour before kaolin, male rats, vs untreated control
Procedure: as §1
(§2) Anti-inflammatory activity was evaluated on kaolin oedema, carrageenin oedema and Freund adjuvant disease as standard model inflammatory syndromes in a group of six male rats.
The kaolin oedema of an extremity (J. Hillebrecht, Arzneim.-Forsch. 9, 625 (1969)) was produced in male rats weighing 130-150 grams by subplanatary injection of a 10% aqueous suspension of kaolin (0.1 ml). The indolylacetate of the invention and indomethacin were administered one hour before the injection of the suspension. The oedema size was measured 30 minutes, 3, 4.5 and 6 hours after the injection. The activity is conveniently expressed in percent of rate of inhibition in comparison with the untreated control group, the results being summarized in Table II below.

[3] = Acute oral toxicity in mice; conditions: mouse, in vivo, single dose, female mice, 10 days, limits after the slash
Procedure: as §1
(§3) Acute toxicity was determined by administering both compounds in a single dose to female mice weighing 16-20 grams (groups of ten) and female rats weighing 130-150 grams (groups of ten). The mortality rate was followed for 10 days after administration of the dosage. The median lethal doses, LD50, are set forth in Table I below and were calculated by the method of J. Berkson, J. Am. Stat. Assoc. 50, 529, (1955).

[4] = Acute oral toxicity in rats; conditions: rat, in vivo, single dose, female rats, 10 days, limits after the slash
Procedure: as §1, §3

[5] = tested on: carrageenin oedema; experiment: Carrageenin oedema inhibition; assay type: in vivo; conditions: 1.5 mg/kg p.o., male rats, vs untreated control
Procedure: as §1, §2
The carrageenin oedema (Ch. Winter, Proc. Soc. Exp. Biol. Med. 111, 544 (1962)) was produced in male rats weighing 130-150 grams by subplanatary injection of a 0.5% carrageenin solution (0.1 ml). The dosage schedule and assay procedure as well as the results were identical with those described above for the kaolin oedema inhibition test.

[6] = tested on: gastric mucosa; assay type: in vivo; conditions: 8 mg/kg oral, starving female rats
Procedure: as §1
Gastrotoxicity (adversary effect on gastric mucosa, A. Robert, J. E. Nezamis, Proc. Soc. Exp. Biol. Med. 99, 443 (1958)) was monitored by oral administration of the compounds being compared by testing starving female rats of 250-300 grams body weight (group of six animals). The evaluation was made by estimating the frequency of gastric erosions and ulcers. The relative gastrotoxicity of the two compounds is expressed by the respective standard criteria, ulceration index, as indicated in Table IV below.

Molecule `COc1ccc2c(c1)c(CC(=O)OCC(C(=O)O)c1ccccc1)c(C)n2C(=O)c1ccc(Cl)cc1` (centres unmarked) [Compound of Invention, 2-phenyl-2-carboxyethyl 1-(p-chlorobenzoyl)-5-methoxy-2-methyl-3-indolylacetate] has an ED50 ([1]; oral, female mice, 3% acetic acid i.p.) of 24.5 mg/kg, a Kaolin oedema inhibition [2] of 16% and an LD50 at 240 h [3] of 190 mg/kg. The LD50 at 240 h [4] was 140 mg/kg and the Carrageenin oedema inhibition [5] was 15%.

Work on `COc1ccc2c(c1)c(CC(=O)O)c(C)n2C(=O)c1ccc(Cl)cc1` [Indomethacin, 1-(p-chlorobenzoyl)-5-methoxy-2-methyl-3-indolylacetic acid] yielded an ED50 ([1]; po) of 14.5 mg/kg, a Kaolin oedema inhibition [2] of 19% and an LD50 at 240 h [3] of 18 mg/kg. The LD50 at 240 h [4] was 25 mg/kg, the Carrageenin oedema inhibition [5] was 14% and the “Ulceration Index” value [6] was 300.

Reference: patent US4136194A, “2-Phenyl-2-carboxyethyl 1-(p-chlorobenzoyl)-5-methoxy-2-methyl-3-indolylacetate and process for preparation thereof” (SPOFA, United Pharmaceutical Works, priority 1976, dated 1979)
